The values that follow come from publication PMC3409115, “Diverse Inhibitor Chemotypes Targeting Trypanosoma cruzi CYP51” (PLoS Neglected Tropical Diseases, 2012).

“Also recorded” adds a separate entry of the source. Read-outs that look alike come from different tables or passages of the source.

Series [1] deals with T1, T. cruzi CYP51 (Trypanosoma cruzi, UniProt Q7Z1V1).
T1 construct: had the first 21 residues upstream of K22 replaced with the fragment MAKKKKK; His6 (C); made in house
The experiment in a line: Low throughput UV-vis binding assay. The settings on record: read-out: KD. As for the experimental part:
Hit validation in the low throughput UV-vis binding assay was performed according to a previously published but somewhat modified protocol. UV-vis absorption spectra were recorded on a Cary scanning spectrophotometer (Varian) in the 1-cm path length quartz cuvette at 23°C in 100 mM potassium phosphate buffer, pH 7.5, containing 10% glycerol, with CYP51 concentration of 0.5 µM. Compound solutions used for titration were prepared in DMSO at 100 µM and added in 2-µl aliquots to each 3 ml sample using a P2 pipetman (Gilson). Binding affinity of hits was estimated using the quadratic tight-binding equation [27]: […]
where Aobs is the absorption shift determined at any ligand concentration; Amax is the maximal absorption shift obtained at saturation; KD is dissociation constant for the inhibitor-enzyme complex; S is the ligand concentration; Et is the total enzyme concentration.

In series [2] the test system is T. cruzi-infected skeletal myoblasts (intracellular amastigotes). The experiment in a line: Hit cross-validation in T. cruzi-infected mammalian cells (image-based assay). Type of series: cell-based, Trypanosoma cruzi. As for the experimental part:
Bovine embryo skeletal muscle cells or mouse C2C12 myoblasts (ATCC#CRL-1772) used in the cross-validation assay, were cultivated respectively in RPMI 1640 medium supplemented with 5% horse serum and Dulbecco's Modified Eagle's Medium H-21 containing 4.5 g/l glucose (DMEM H-21) (Cell Culture Facility, UCSF), supplemented with 5% fetal bovine serum (FBS) (Sigma Chemical Co., St. Louis, MO, USA), 25 mM HEPES, 2 mM L-glutamine, 100 U/ml penicillin, 100 µg/ml streptomycin. T. cruzi CAI-72 trypomastigotes were obtained from supernatant of infected cultures 4 to 7 days post-infection. Cultures were maintained at 37°C in an atmosphere of 5% CO2. To harvest parasites, the supernatant of infected cultures containing released trypomastigotes was collected and centrifuged at 600 rpm for 5 min to remove cell debris; the pellet was then discarded and the trypomastigotes remaining in the media were concentrated by spinning the culture tubes at 3300 rpm for 15 minutes. The parasite pellet was re-suspended in 2–5 ml of fresh media. Trypomastigote concentration was determined using a Neubauer hemocytometer.
(§1) Compound cross-validation in T. cruzi infected skeletal myoblasts (bovine embryo skeletal muscle or C2C12 lineage) was performed according to the protocol adapted from Engel and co-authors. Compounds stored as 10 mM stocks in DMSO were freshly diluted immediately prior to use. […] To prepare plates for the assay, skeletal myoblasts cultured in […] flasks were washed once with phosphate buffered saline (PBS) and then incubated with 0.25% trypsin in PBS for 1–3 minutes for detachment. The trypsin solution was removed and myoblasts were released from the flask bottom. Fresh medium was added and cell concentration was determined using a Neubauer hemocytometer. Myoblasts in 50 µl of culture medium were transferred to the clear-bottom wells of black 96-well plates (Greiner Bio-One, #655090) at a density of 1500 cells/well and infected with 50 µl trypomastigote culture at 7500 parasites/well (1∶5 ratio). The cells were allowed to adhere and spread for 24 h in the incubator before the media was removed and 100 µl of fresh medium containing 0, 0.04, 0.12, 0.37, 1.10, 3.30 or 10 µM of test compound was added to each well, followed by 72 h incubation at 37°C in an atmosphere of 5% CO2. Posaconazole was used as a positive control at the same concentrations as the test compounds. The cells were then fixed by adding 100 µl/well of 8% formaldehyde in PBS, resulting in a 4% working concentration of formaldehyde. To stain the nucleus of the host cell and the nucleus and kinetoplast of parasites, cell membranes were first permeabilized by washing once with 100 µl of 0.1% Triton X-100 in PBS, then treated for 1 h with 0.2 µg/ml of the fluorescent DNA dye, 4,6-diamidino-2-phenylindole (DAPI), followed by one wash with PBS. The fixed plates were kept at 4°C and protected from light until images were acquired.
(§2) Plates were allowed to equilibrate to room temperature and images were acquired by the IN Cell Analyzer 2000 (GE Healthcare) with a 20× objective, 5 fields per well, with 350/50 nm and 460/40 nm fluorescent excitation and emission filters. In the absence of drug cytotoxicity, at least 800 cells were imaged and counted per well. The images were processed and analyzed by IN Cell Analyzer Developer 1.6 software. The size parameters used to segment host and parasite organelles were 125 µm^2 for host nucleus, and 1–2 µm^2 for parasite nucleus/kinetoplast. Since DAPI also strongly stains host heterochromatin regions that display as shapes resembling parasites ( Figure 3 ), particles co-localized to host nuclei were excluded from quantification, while parasite aggregates near the host nucleus were counted as infected cells.

Series [3] deals with host cell (skeletal myoblasts, bovine embryo skeletal muscle or C2C12). The experiment in a line: Host cell toxicity in the cross-validation assay. The settings on record: host cells in cross-validation assay, up to 10 µM. Type of series: cell-based. As for the experimental part: as §1
as §2, with “cells. Numbers of host cells and intracellular amastigotes were determined based on host cell and parasite nucleus and parasite kinetoplast quantification, providing a measure of growth inhibition during the first 72 h of post-infection treatment compared to untreated controls.” for “cells.”
^aToxicity was assessed as the highest percentage of host cell growth inhibition caused by compound treatment. Scores are assigned as 1-<20%; 2-21-30%; 3- 31-40%; 4-41-50% and 5->50% growth inhibition.

In series [4] the target is T1, T. cruzi CYP51. The experiment in a line: HTS spectral-mode binding screen, type II difference spectra scored 0-5.
Series [5] deals with sterol biosynthesis in T. cruzi amastigotes. The experiment in a line: Lipid analysis of T. cruzi amastigotes (GC-MS of membrane sterols). The class given is cell-based, Trypanosoma cruzi. The settings on record: amastigotes in C2C12 myoblasts, 24 h drug treatment, concentrations 5x below cidal; posaconazole 100 nM. How it is done: To grow intracellular amastigotes for lipid analysis, C2C12 mouse skeletal myoblasts (4×10^6 cells) cultured in 150 cm^2 flasks as described above were infected with 80×10^6 trypomastigotes for 24 h. The cultures were treated with test compounds 72 h post-infection at concentrations 5× below cidal to avoid completely killing the parasites. Posaconazole at 100 nM was used as a positive control. […] Cells were harvested 96 h post-infection and after 24 h of drug treatment. Cell detachment was initiated by brief treatment with 10 ml of 0.25% trypsin in PBS, followed promptly by replacement with 10 ml of fresh media containing FBS. Harvested cells were washed 3× with 25 ml of PBS to remove FBS and released trypomastigotes. The suspension of infected cells was then transferred to a glass tube and centrifuged at 2000 rpm for 5 min. After washing with PBS, 2 ml of chloroform-methanol solution (2∶1 ratio) was added to re-suspend the cell pellet. Organic solvents were then evaporated under N2 flow, allowing the pellet to dry.
For total lipid extraction, the dry cell pellet was treated with 2 ml chloroform for 24 h. Polar molecules were removed by washing the organic phase 3× with 3 ml water. The organic phase containing the sterols was subsequently dried on an evaporator under N2 flow. The lipids were re-suspended in 2 ml of chloroform-methanol (9∶1 ratio), washed again 3× with 3 ml water, dried under N2 flow and re-suspended in acetonitrile. After an additional wash 3× with 3 ml water, the acetonitrile was dried under an N2 stream. Extracted dry sterols were re-dissolved in hexane and derivatized with N,N-bis(trimethylsilyl)-2,2,2-trifluoroacetamide (BSTFA) (Pierce) by incubating at 37°C for at least 2 hours. Sterols as their trimethylsilyl (TMS) derivatives were analyzed by gas chromatography and mass spectrometry (GC-MS). GC-MS analysis and lipid identification were performed as described previously.

Series [6] deals with T. cruzi trypomastigote strain CAI/72 in C2C12 myoblasts. The experiment in a line: Trypanocidal assay. Type of series: cell-based, Trypanosoma cruzi. The note with it: 14 days treatment, then one week compound-free. How it is done:
Compounds cross-validated with low EC50 against T. cruzi infected cells were further evaluated to determine the “cidal” concentration at which host cells are effectively cured, using the protocol adapted from Engel et al 1998 [30]. To allow long term treatment and avoid culture overgrowth, C2C12 myoblasts were seeded at low density in 96 well plates (10^3 cells/well) and cultured with DMEM H-21 medium supplemented with low FBS concentration (1%), 25 mM HEPES, 2 mM L-glutamine, 100 U/ml penicillin and 100 µg/ml streptomycin. The cells were infected with T. cruzi trypomastigote strain CAI/72 (5 parasites/cell) for 24 h and treated with 0, 0.04, 0.12, 0.37, 1.10, 3.30 or 10 µM test compounds in 100 µl of medium for 14 days. During the course of treatment, medium supplemented with test compounds was replaced every 72 h. After 14 days, drug pressure was withdrawn and incubation continued in the compound-free medium for another week, during which cultures were monitored for reappearance of T. cruzi trypomastigotes in the supernatant.

Series [7] deals with T1, T. cruzi CYP51. The experiment in a line: Primary HTS in two-wavelength mode. Type of series: binding. The note with it: 2 µM CYP51, 528 measurements.
[8] abbreviates: UV-vis titration, 0.5 µM CYP51, quadratic tight-binding equation, lower limit of method ~5 nM.
Setting [9] is: Trypanosoma cruzi, Myoblast, 72 h, T. cruzi-infected myoblasts, 72 h treatment, repurchased compound, read-out: EC50 averaged from two independent cross-validation assays for individually repurchased hits.
The mark [10] stands for this setting: T. cruzi-infected myoblasts, 72 h treatment, read-out: EC50 against T. cruzi parasites in HTS assay used to rank order the hits.
The mark [11] stands for this setting: Trypanosoma cruzi, Myoblast, 72 h, T. cruzi-infected myoblasts, 72 h treatment, read-out: EC50 against T. cruzi parasites in HTS assay used to rank order the hits.
Where [12] appears, read: spectral mode, four serial dilutions 2 µM to 12.5 µM, 2 µM CYP51.
Where [13] appears, read: type II difference spectra scored 0-5, second highest rated hit compound cluster.

T1 sequence (Q7Z1V1 15-481, looked up, natural form): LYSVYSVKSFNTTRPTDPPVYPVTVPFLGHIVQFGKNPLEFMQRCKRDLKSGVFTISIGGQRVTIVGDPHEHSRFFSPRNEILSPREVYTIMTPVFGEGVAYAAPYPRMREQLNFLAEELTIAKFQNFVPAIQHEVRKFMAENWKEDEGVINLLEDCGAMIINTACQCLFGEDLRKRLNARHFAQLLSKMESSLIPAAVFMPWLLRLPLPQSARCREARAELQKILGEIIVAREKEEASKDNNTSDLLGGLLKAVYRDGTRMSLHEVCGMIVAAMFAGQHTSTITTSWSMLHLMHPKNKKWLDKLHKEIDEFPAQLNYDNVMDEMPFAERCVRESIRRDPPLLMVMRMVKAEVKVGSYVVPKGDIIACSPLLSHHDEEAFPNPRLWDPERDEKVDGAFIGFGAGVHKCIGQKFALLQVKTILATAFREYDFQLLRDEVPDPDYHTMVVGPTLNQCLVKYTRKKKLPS

In the case of `Brc1ccc(OCCCCCCn2ccnc2)cc1` [Compound 1a], the dissociation constant (Kd) (commonly the equilibrium constant for the complex coming apart) on T. cruzi CYP51 [1] (setting [8]) is at most 0.005 µM. Moreover, the EC50 (as a rule, the concentration needed to bring the measured effect to its halfway point) in series [2] (setting [9]) was determined as 0.93 ± 0.1 µM.
Regarding `Brc1ccccc1OCCCCn1ccnc1` [Compound 1b], on T. cruzi CYP51 [1] (setting [8]), the Kd amounted to 0.066 ± 0.029 µM. Further, the 50% effective concentration (EC50) in series [2] (setting [9]) worked out at 4.58 ± 2 µM.
On to `COc1ccc(S(=O)(=O)NC(C)c2ccc(-n3ccnc3)cc2)c2ccccc12` (stereo not drawn) [Compound 3], for which the Kd at T. cruzi CYP51 [1] (setting [8]) was at most 0.005 µM. Further, the “Toxicity score (highest percentage of host cell growth inhibition)” value in series [3] is 2 (2-21-30%). In addition, the EC50 came out at 0.484 µM in series [2] (setting [10]), 0.2 µM in series [2] (setting [9]) and 0.48 µM in series [2] (setting [11]).
Regarding `COC(=O)C1=C(N)Oc2cc(C)n(CCc3ccc(OC)c(OC)c3)c(=O)c2C1c1cccnc1` (stereo not drawn) [Compound 6, methyl 2-amino-6-[2-(3,4-dimethoxyphenyl)ethyl]-7-methyl-5-oxo-4-pyridin-3-yl-5,6-dihydro-4H-pyrano[3,2-c]pyridine-3-carboxylate], the Kd on T. cruzi CYP51 [1] (setting [8]) is 0.076 µM. Moreover, the HTS binding score on T. cruzi CYP51 [4] (setting [12]) and on T. cruzi CYP51 [4] (setting [13]) was 3 in each case. Further, in series [3], the “Toxicity score (highest percentage of host cell growth inhibition)” value is listed as 1 (1-<20%). In addition, the EC50 in series [2] (setting [10]) came out at 0.614 µM; in series [2] (setting [11]), 0.61 µM; in series [2] (Trypanosoma cruzi, Myoblast, in Mus musculus, T. cruzi amastigotes cultured in mouse myoblasts, averaged from two independent assays, read-out: EC50 in low throughput validation (repurchased hit)), 0.08 µM.
`Cc1cccc(Nc2nc(-c3ccncc3)cs2)n1` [Compound 9]: at T. cruzi CYP51 [1] (setting [8]), the Kd was at most 0.005 µM. Also, on T. cruzi CYP51 [4] (setting [12]), the HTS binding score was found to be 4. In series [3], the “Toxicity score (highest percentage of host cell growth inhibition)” value is 1 (1-<20%). In addition, the results for the EC50 in series [2] (setting [10]), in series [2] (setting [9]) and in series [2] (setting [11]) were 0.914 µM, 0.58 µM and 0.91 µM, respectively.
Regarding `Clc1ccc(OCCCCCCn2ccnc2)cc1` [Compound 11], the Kd on T. cruzi CYP51 [1] (setting [8]) was determined as 0.065 ± 0.015 µM. Also, the “Toxicity score (highest percentage of host cell growth inhibition)” value in series [3] is listed as 2 (2-21-30%). Moreover, the values for the concentration for a half-maximal effect (EC50) in series [2] (setting [10]), in series [2] (setting [9]) and in series [2] (setting [11]) were 0.948 µM, 0.76 µM and 0.95 µM, respectively.
Take `CC1(C)CC(=O)C2=C(C1)c1c(ccc3ccccc13)NC2c1cccnc1` (stereo not drawn) [Compound 19]: on T. cruzi CYP51 [1] (T. cruzi CYP51), the Kd was at most 0.005 µM. Besides, the HTS binding score on T. cruzi CYP51 [4] (setting [12]) and at T. cruzi CYP51 [4] (setting [13]) was 5 throughout. Besides, the “Toxicity score (highest percentage of host cell growth inhibition)” value in series [3] is 3 (3- 31-40%). Further, in series [2] (setting [11]), the EC50 came to 2.5 µM.
The compound `Nc1c(C(=O)NCCc2c[nH]c3ccccc23)sc2nc(-c3cccnc3)ccc12` [Compound 57] showed an HTS binding score at T. cruzi CYP51 [4] (setting [12]) of 2. Besides, the “Toxicity score (highest percentage of host cell growth inhibition)” value in series [3] is given as 1 (1-<20%). Further, in series [2] (Trypanosoma cruzi, Myoblast, 72 h, read-out: EC50 against T. cruzi parasites in HTS assay used to rank order the hits), the EC50 stood at 9.74 µM.
As to `CC[C@@H]([C@H](C)O)n1ncn(-c2ccc(N3CCN(c4ccc(OC[C@@H]5CO[C@@](Cn6cncn6)(c6ccc(F)cc6F)C5)cc4)CC3)cc2)c1=O` [posaconazole, reference compound], the “Effect on membrane sterol composition by GC-MS” value in series [5] is “lanosterol (f) and eburicol (h) dominated the GC-MS traces; also recorded: fecosterol (e) was completely inhibited”. The compound further returned a Trypanocidal concentration in series [6] of 0.6 nM. Further, the concentration giving a half-maximal response (EC50) in series [2] (Trypanosoma cruzi, Myoblast, 72 h, T. cruzi-infected myoblasts, 72 h treatment, read-out: EC50 in image-based HTS cross-validation assay) came to 0.001 µM.
With `CC1CCC(C(=O)NC(Cc2c[nH]c3ccccc23)C(=O)Nc2ccncc2)CC1` (stereo not drawn) [reference, α-[(4-methylcyclohexyl)carbonylamino]-N-4-pyridinyl-1H-indole-3-propanamide], the “ΔA = A425−A390” value on T. cruzi CYP51 [7] came out at 0.043±0.004.
